Data as given in ChEMBL document CHEMBL3885881, “DrugMatrix”.

Species: Rattus norvegicus
Assay: DrugMatrix - Regimen: Daily Repeat
Type: toxicity, organism-based, Sprague-Dawley
Design: regimen Daily Repeat, gender Male, age 6-8 weeks
Details: in vivo, po, […], route oral GAVAGE, vehicle .5 % CMC; for ALANINE AMINOTRANSFERASE / ALKALINE PHOSPHATASE / ASPARTATE AMINOTRANSFERASE / BLOOD UREA NITROGEN / CHOLESTEROL / CREATINE PHOSPHOKINASE / CREATININE / PHOSPHORUS / POTASSIUM / SODIUM / TOTAL PROTEIN / GLUCOSE: tissue Plasma
[1] = 72 h, tissue Blood, dose 7.5 mg/Kg, dose level High, time 3 day
[2] = 72 h, dose 0.77 mg/Kg, dose level Low, time 3 day
[3] = 72 h, dose 7.5 mg/Kg, dose level High, time 3 day
[4] = 120 h, tissue Blood, dose 0.77 mg/Kg, dose level Low, time 5 day
[5] = 120 h, tissue Blood, dose 7.5 mg/Kg, dose level High, time 5 day
[6] = 120 h, dose 0.77 mg/Kg, dose level Low, time 5 day
[7] = 120 h, dose 7.5 mg/Kg, dose level High, time 5 day

Sequence: IVERMECTIN
- MEAN CORPUSCULAR HEMOGLOBIN CONCENTRATION [1]: 36.1 G/DL
- MONOCYTE [1]: 4%
- NEUTROPHIL [1]: 4%
- PLATELET COUNT [1]: 1400 x10E3/uL
- ALANINE AMINOTRANSFERASE [2]: 35 u/L
- ALKALINE PHOSPHATASE [2]: 418 u/L
- ASPARTATE AMINOTRANSFERASE [2]: 56 u/L
- BLOOD UREA NITROGEN [2]: 12.67 mg/dL
- CHOLESTEROL [2]: 77.33 mg/dL
- CREATINE PHOSPHOKINASE [2]: 149.33 u/L
- CREATININE [2]: 0.5 mg/dL
- PHOSPHORUS [2]: 13.27 mg/dL
- POTASSIUM [2]: 6.9 MEQ/L
- SODIUM [2]: 150.33 MEQ/L
- TOTAL PROTEIN [2]: 5.73 G/DL
- ALANINE AMINOTRANSFERASE [3]: 31 u/L
- ALKALINE PHOSPHATASE [3]: 420 u/L
- ASPARTATE AMINOTRANSFERASE [3]: 57 u/L
- CHOLESTEROL [3]: 70 mg/dL
- CREATINE PHOSPHOKINASE [3]: 190 u/L
- CREATININE [3]: 0.5 mg/dL
- PHOSPHORUS [3]: 13.3 mg/dL
- POTASSIUM [3]: 6.93 MEQ/L
- SODIUM [3]: 150.33 MEQ/L
- BASOPHIL [4]: 0%
- EOSINOPHIL [4]: 0%
- ERYTHROCYTE COUNT [4]: 5.85 x10E6/uL
- HEMATOCRIT [4]: 37.25%
- HEMOGLOBIN [4]: 14 G/DL
- LEUKOCYTE COUNT [4]: 11.3 x10E3/uL
- LYMPHOCYTE [4]: 94%
- MEAN CORPUSCULAR HEMOGLOBIN [4]: 23.95 pg
- MEAN CORPUSCULAR HEMOGLOBIN CONCENTRATION [4]: 37.6 G/DL
- MONOCYTE [4]: 0%
- NEUTROPHIL [4]: 6%
- PLATELET COUNT [4]: 1300.5 x10E3/uL
- BASOPHIL [5]: 0%
- EOSINOPHIL [5]: 0.33%
- ERYTHROCYTE COUNT [5]: 6.11 x10E6/uL
- HEMATOCRIT [5]: 40.07%
- HEMOGLOBIN [5]: 15 G/DL
- LEUKOCYTE COUNT [5]: 16.37 x10E3/uL
- LYMPHOCYTE [5]: 90%
- MEAN CORPUSCULAR HEMOGLOBIN CONCENTRATION [5]: 37.43 G/DL
- MEAN CORPUSCULAR VOLUME [5]: 65.57 fL
- MONOCYTE [5]: 1%
- PLATELET COUNT [5]: 1335.33 x10E3/uL
- ALANINE AMINOTRANSFERASE [6]: 36.33 u/L
- ALKALINE PHOSPHATASE [6]: 489 u/L
- ASPARTATE AMINOTRANSFERASE [6]: 59.67 u/L
- BLOOD UREA NITROGEN [6]: 15.67 mg/dL
- CHOLESTEROL [6]: 69.67 mg/dL
- CREATINE PHOSPHOKINASE [6]: 135.67 u/L
- CREATININE [6]: 0.53 mg/dL
- GLUCOSE [6]: 195.33 mg/dL
- PHOSPHORUS [6]: 13.07 mg/dL
- POTASSIUM [6]: 6.87 MEQ/L
- TOTAL PROTEIN [6]: 5.7 G/DL
- ALANINE AMINOTRANSFERASE [7]: 29.33 u/L
- ALKALINE PHOSPHATASE [7]: 361 u/L
- ASPARTATE AMINOTRANSFERASE [7]: 51.67 u/L
- BLOOD UREA NITROGEN [7]: 15.67 mg/dL
- CHOLESTEROL [7]: 64.67 mg/dL
- CREATINE PHOSPHOKINASE [7]: 155.67 u/L
- CREATININE [7]: 0.53 mg/dL
- GLUCOSE [7]: 166.33 mg/dL
- PHOSPHORUS [7]: 13.37 mg/dL
- POTASSIUM [7]: 7.1 MEQ/L
- SODIUM [7]: 147 MEQ/L
- TOTAL PROTEIN [7]: 5.7 G/DL
